Laboratory results published in PubChem BioAssay AID1794813.
Where “and” joins values, the source holds several entries; their conditions need not be identical. Equal entries are not always repeated.

Target: Sodium-dependent phosphate transport protein 2A (Homo sapiens) (UniProt Q06495)
Experiment: PubChem AID 1794813
Settings: HEK293 JumpIn SLC34A1, FLIPR membrane potential dye

Sequence of Sodium-dependent phosphate transport protein 2A (Homo sapiens) (Q06495 whole entry, looked up): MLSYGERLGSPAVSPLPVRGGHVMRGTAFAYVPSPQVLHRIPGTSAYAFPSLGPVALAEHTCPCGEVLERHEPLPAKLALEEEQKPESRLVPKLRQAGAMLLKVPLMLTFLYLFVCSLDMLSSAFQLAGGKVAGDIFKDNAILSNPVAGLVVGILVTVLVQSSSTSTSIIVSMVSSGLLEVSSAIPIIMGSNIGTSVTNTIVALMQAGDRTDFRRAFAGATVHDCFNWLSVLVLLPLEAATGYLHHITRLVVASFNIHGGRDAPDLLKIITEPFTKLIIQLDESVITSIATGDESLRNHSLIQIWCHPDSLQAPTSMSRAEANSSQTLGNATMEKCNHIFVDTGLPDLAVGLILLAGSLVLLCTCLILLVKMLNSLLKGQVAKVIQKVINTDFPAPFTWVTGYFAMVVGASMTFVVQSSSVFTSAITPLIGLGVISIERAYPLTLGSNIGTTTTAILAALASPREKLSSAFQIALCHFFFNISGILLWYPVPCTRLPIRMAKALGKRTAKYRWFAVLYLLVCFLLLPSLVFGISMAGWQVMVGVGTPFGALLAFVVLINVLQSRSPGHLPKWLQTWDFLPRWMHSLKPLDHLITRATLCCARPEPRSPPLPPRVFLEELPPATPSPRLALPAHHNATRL

In the case of `O=P(O)(O)O`, the EC50 (substrate-evoked depolarization, activation) is reported as 32 µM and 39 µM.
